Key:
A549 = test: Cytotoxicity against human A549 cells incubated for 2 to 4 hrs by MTT assay; type: functional, cell-based
MCF7 [1] = test: cells; type: functional, cell-based; conditions: Homo sapiens
Description: Cytotoxicity against human MCF7 cells incubated for 2 to 4 hrs by MTT assay

MCF7 [2] = test: Induction of apoptosis in human MCF7 cells assessed as late apoptotic cells measured after 24 hrs by Annexin V-FITC/propidium iodide staining based flow cytometry assay (reference value: 0.12%); type: functional
MCF7 [3] = test: Induction of apoptosis in human MCF7 cells assessed as early apoptotic cells measured after 24 hrs by Annexin V-FITC/propidium iodide staining based flow cytometry assay (reference value: 0.32%); type: functional
MCF7 [4] = test: Induction of cell cycle arrest in human MCF7 cells assessed as accumulation of cells at Pre-G1 phase at 1.74 uM after 24 hrs by propidium iodide staining-based flow cytometric analysis (reference value: 1.63%); type: functional
MCF7 [5] = test: Induction of cell cycle arrest in human MCF7 cells assessed as accumulation of cells at G0/G1 phase at 1.74 uM after 24 hrs by propidium iodide staining-based flow cytometric analysis (reference value: 52.94%); type: functional
MCF7 [6] = test: Induction of cell cycle arrest in human MCF7 cells assessed as accumulation of cells at G2/M phase at 1.74 uM after 24 hrs by propidium iodide staining-based flow cytometric analysis (reference value: 10.49%); type: functional
cells = type: ADME, cell-based; conditions: Homo sapiens, PCS-800-011
Description: Cytotoxicity against human PCS-800-011 cells

MCF7 [7] = test: Induction of cell cycle arrest in human MCF7 cells assessed as accumulation of cells at S phase at 1.74 uM after 24 hrs by propidium iodide staining-based flow cytometric analysis (reference value: 36.57%); type: functional
[8] = molecular target: Epidermal growth factor receptor (Homo sapiens, UniProt P00533)
Description: Inhibition of EGFR (unknown origin)

MCF7 [9] = test: Induction of apoptosis in human MCF7 cells assessed as total apoptotic cells measured after 24 hrs by Annexin V-FITC/propidium iodide staining based flow cytometry assay (reference value: 1.63%); type: functional
MCF7 [10] = test: Induction of apoptosis in human MCF7 cells assessed as necrotic cells measured after 24 hrs by Annexin V-FITC/propidium iodide staining based flow cytometry assay (reference value: 1.19%); type: functional
MCF7 [11] = test: Induction of cell cycle arrest in human MCF7 cells assessed as accumulation of cells at G2/M phase at 4.05 uM after 24 hrs by propidium iodide staining-based flow cytometric analysis (reference value: 10.49%); type: functional
MCF7 [12] = test: Induction of cell cycle arrest in human MCF7 cells assessed as accumulation of cells at S phase at 4.05 uM after 24 hrs by propidium iodide staining-based flow cytometric analysis (reference value: 36.57%); type: functional
MCF7 [13] = test: Induction of cell cycle arrest in human MCF7 cells assessed as accumulation of cells at Pre-G1 phase at 4.05 uM after 24 hrs by propidium iodide staining-based flow cytometric analysis (reference value: 1.63%); type: functional
MCF7 [14] = test: Induction of cell cycle arrest in human MCF7 cells assessed as accumulation of cells at G0/G1 phase at 4.05 uM after 24 hrs by propidium iodide staining-based flow cytometric analysis (reference value: 52.94%); type: functional

Sequence of Epidermal growth factor receptor (P00533 whole entry): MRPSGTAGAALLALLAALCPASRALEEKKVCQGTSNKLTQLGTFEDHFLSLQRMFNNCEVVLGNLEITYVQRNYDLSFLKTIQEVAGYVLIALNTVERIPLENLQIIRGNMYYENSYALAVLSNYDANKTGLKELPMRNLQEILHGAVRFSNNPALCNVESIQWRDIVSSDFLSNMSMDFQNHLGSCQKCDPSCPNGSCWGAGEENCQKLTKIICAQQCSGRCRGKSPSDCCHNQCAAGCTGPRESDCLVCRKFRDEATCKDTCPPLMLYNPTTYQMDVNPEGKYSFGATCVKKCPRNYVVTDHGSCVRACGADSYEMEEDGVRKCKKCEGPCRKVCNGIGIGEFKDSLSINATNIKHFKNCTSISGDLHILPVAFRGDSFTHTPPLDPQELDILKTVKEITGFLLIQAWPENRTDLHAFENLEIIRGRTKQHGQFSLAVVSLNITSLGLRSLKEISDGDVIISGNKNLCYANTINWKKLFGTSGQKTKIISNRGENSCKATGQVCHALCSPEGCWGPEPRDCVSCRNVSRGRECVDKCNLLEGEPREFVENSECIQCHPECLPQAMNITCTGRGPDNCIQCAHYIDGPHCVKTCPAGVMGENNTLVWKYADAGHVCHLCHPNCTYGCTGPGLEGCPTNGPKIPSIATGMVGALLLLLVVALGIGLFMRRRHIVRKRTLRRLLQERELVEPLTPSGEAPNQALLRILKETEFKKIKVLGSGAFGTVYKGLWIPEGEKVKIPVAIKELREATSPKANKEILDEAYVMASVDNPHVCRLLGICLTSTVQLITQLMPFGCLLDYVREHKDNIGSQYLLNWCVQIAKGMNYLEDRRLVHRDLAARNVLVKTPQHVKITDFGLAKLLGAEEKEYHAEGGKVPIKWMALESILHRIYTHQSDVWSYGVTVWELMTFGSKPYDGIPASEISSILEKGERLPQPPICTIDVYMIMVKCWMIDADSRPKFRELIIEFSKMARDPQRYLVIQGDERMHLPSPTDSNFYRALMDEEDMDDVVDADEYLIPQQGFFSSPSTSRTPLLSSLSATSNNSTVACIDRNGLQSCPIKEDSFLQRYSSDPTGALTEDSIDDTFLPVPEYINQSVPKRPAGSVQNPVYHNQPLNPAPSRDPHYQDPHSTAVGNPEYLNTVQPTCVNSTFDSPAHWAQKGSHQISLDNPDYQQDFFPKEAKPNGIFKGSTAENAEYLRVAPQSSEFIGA

| IC50 (MCF7 [1]) [µM] | IC50 (cells) [µM] | IC50 [8] [µM] | SMILES | IC50 (A549) [µM] | also measured |
| --- | --- | --- | --- | --- | --- |
| 4.41 |  |  | O=C(CNc1ccc(Cl)cc1Cl)Nn1c(-c2ccccc2)nc2ccccc2c1=O | 187 |  |
| 1.74 | 51.2 | 0.0811 | O=C(CNc1ccc(Cl)cc1)Nn1c(-c2ccccc2)nc2ccccc2c1=O | 7.29 | Activity (MCF7 [2]): 23.65%; Activity (MCF7 [3]): 2.56%; Activity (MCF7 [4]): 37.24%; Activity (MCF7 [5]): 34.32%; Activity (MCF7 [6]): 36.21%; Activity (MCF7 [7]): 29.47%; Activity (MCF7 [9]): 37.24%; Activity (MCF7 [10]): 11.03% |
| 3.76 | 31.4 | 0.136 | COc1ccc(/C=C2/SC(Nn3c(-c4ccccc4)nc4ccccc4c3=O)=NC2=O)cc1 | 5.31 |  |
| 1 |  |  | COc1ccc(/C=C2/SC(Nn3c(-c4ccccc4)nc4ccccc4c3=O)=NC2=O)cc1OC | 44.7 |  |
|  |  | 0.0331 | COc1ccc(-c2coc3cc(OCC(=O)N/C=C\c4ccc(O)cc4)ccc3c2=O)cc1 |  |  |
|  |  | 0.00039 | CN(/N=N\c1ccc2ncnc(Nc3cccc(Cl)c3)c2c1)C(=O)OCCl |  |  |
| 2.42 | 36.9 | 0.143 | CCc1ccc(NCC(=O)Nn2c(-c3ccccc3)nc3ccccc3c2=O)cc1 | 2.1 |  |
| 15.2 |  |  | O=C(CNc1ccccc1)Nn1c(-c2ccccc2)nc2ccccc2c1=O | 13.3 |  |
| 4.05 | 44.3 | 0.0656 | O=C1N=C(Nn2c(-c3ccccc3)nc3ccccc3c2=O)S/C1=C/c1ccccc1 | 0.72 | Activity (MCF7 [11]): 29.17%; Activity (MCF7 [12]): 27.88%; Activity (MCF7 [2]): 12.16%; Activity (MCF7 [13]): 26.38%; Activity (MCF7 [3]): 4.95%; Activity (MCF7 [14]): 42.95%; Activity (MCF7 [9]): 26.38%; Activity (MCF7 [10]): 9.27% |
| 15.1 |  |  | O=C(CNc1ccc(Br)cc1)Nn1c(-c2ccccc2)nc2ccccc2c1=O | 25 |  |
| 2.3 |  |  | O=C1N=C(Nn2c(-c3ccccc3)nc3ccccc3c2=O)S/C1=C/c1ccc(Br)cc1 | 21.3 |  |
| 7.49 | 17.3 | 0.178 | O=C1N=C(Nn2c(-c3ccccc3)nc3ccccc3c2=O)S/C1=C/c1ccc(O)cc1O | 3.22 |  |

| SMILES | IC50 (MCF7 [1]) [µM] | IC50 (cells) [µM] | IC50 [8] [µM] | IC50 (A549) [µM] | also measured |
| --- | --- | --- | --- | --- | --- |
| CN(C(=O)NCCCl)c1ccc2ncnc(Nc3cccc(Cl)c3)c2c1 |  |  | 0.081 |  |  |
